Reference: ChEMBL document CHEMBL4308871, “Design, synthesis and in vitro evaluation of stilbene derivatives as novel LSD1 inhibitors for AML therapy” (Bioorg Med Chem, 2018)

Assays:
THP-1 [1] = assay: Induction of morphological changes in human THP1 cells assessed as chromatin shrinkage after 3 days by H and E staining based assay; format: functional, cell-based
[2] = target: T1, Amine oxidase [flavin-containing] B (Homo sapiens, UniProt P27338)
T1 sequence (P27338 whole entry): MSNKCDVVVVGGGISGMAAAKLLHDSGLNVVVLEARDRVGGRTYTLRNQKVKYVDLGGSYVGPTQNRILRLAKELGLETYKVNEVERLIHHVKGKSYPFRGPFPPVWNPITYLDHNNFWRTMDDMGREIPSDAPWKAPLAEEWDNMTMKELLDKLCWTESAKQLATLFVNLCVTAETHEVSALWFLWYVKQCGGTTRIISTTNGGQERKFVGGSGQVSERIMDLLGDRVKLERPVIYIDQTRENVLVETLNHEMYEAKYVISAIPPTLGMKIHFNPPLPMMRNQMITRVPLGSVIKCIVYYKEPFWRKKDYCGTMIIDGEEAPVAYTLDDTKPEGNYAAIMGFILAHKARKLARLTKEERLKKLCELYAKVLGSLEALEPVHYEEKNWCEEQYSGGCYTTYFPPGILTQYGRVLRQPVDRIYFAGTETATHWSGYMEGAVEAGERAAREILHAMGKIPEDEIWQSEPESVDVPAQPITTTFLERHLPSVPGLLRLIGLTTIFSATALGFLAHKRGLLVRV

[3] = target: T2, Amine oxidase [flavin-containing] A (Homo sapiens, UniProt P21397); assay: Inhibition of MAO-A (unknown origin) using (4S)-4,5-dihydro-2-(6-hydroxybenzothiazolyl)-4-thiazolecarboxylic acid as substrate by MAO-Glo assay
T2 sequence (P21397 whole entry): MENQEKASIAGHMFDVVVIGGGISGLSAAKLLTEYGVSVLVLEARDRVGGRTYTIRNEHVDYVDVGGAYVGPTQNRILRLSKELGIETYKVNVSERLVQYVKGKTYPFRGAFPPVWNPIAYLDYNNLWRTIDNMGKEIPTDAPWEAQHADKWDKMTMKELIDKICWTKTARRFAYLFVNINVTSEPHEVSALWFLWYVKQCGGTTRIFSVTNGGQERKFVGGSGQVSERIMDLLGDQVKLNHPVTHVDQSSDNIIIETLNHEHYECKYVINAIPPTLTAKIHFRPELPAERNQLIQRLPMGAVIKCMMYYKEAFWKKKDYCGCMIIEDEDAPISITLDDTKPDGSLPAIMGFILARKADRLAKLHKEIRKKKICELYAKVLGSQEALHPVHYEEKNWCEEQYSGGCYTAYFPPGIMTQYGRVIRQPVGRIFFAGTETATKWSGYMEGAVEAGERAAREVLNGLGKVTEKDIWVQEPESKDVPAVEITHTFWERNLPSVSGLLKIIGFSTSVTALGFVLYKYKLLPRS

THP-1 [4] = assay: Inhibition of colony formation in human THP1 cells after 14 days by DAPI staining-based microscopic analysis; format: functional, cell-based
THP-1 [5] = assay: cells; conditions: Homo sapiens, THP-1, 192 h
MV4-11 = assay: cells; conditions: Homo sapiens, MV4-11, 192 h
MOLM-13 = assay: cells; conditions: Homo sapiens, MOLM-13, 192 h
THP-1 [6] = assay: Induction of morphological changes in human THP1 cells assessed as blurred cell membrane boundaries after 3 days by H and E staining based assay; format: functional
[7] = target: Lysine-specific histone demethylase 1A (Homo sapiens, UniProt O60341); assay: Inhibition of full length LSD1 (unknown origin) expressed in Escherichia coli BL21 (DE) using H3K4me2 peptide as substrate after 30 mins by fluorescence assay

With `N/C(=N\O)c1cccc(/C=C/c2ccnc(-c3cc(F)ccc3O)c2)c1` the Activity (THP-1 [1]) was “Dose-dependent effect”, the IC50 [2] was over 50 µM and the IC50 [3] was over 50 µM. The inhibition (THP-1 [4]) was “Dose-dependent effect”, the IC50 (THP-1 [5]) was 5.76 µM and the IC50 (MV4-11) was 7.49 µM. For the same compound, the IC50 (MOLM-13) was 8.34 µM and the Activity (THP-1 [6]) was “Dose-dependent effect”.

For `N/C(=N\O)c1cccc(/C=C/c2ccc(O)c(-c3ccccn3)c2)c1`, the IC50 [2] was over 50 µM, the IC50 [3] was over 50 µM and the IC50 (THP-1 [5]) was 7.89 µM. The IC50 (MV4-11) was 4.71 µM and the IC50 (MOLM-13) was 22.6 µM.

Compound `Nc1cccc(/C=C/c2ccc(O)c(-c3ccccn3)c2)c1` has an IC50 [2] of over 50 µM, an IC50 [3] of over 50 µM and an IC50 (THP-1 [5]) of 10.5 µM. The IC50 (MV4-11) was 10.9 µM, the IC50 (MOLM-13) was 12.5 µM and the IC50 [7] was 0.301 µM.

For `N/C(=N\O)c1cccc(/C=C/c2ccnc(-c3ccccc3O)c2)c1`, the IC50 [2] was over 50 µM, the IC50 [3] was over 50 µM and the IC50 (THP-1 [5]) was 13.7 µM. The IC50 (MV4-11) was 15.8 µM and the IC50 (MOLM-13) was 9.05 µM.

For `N[C@H]1CC[C@H](N[C@@H]2C[C@H]2c2ccccc2)CC1`, the IC50 (THP-1 [5]) was over 20 µM.
